{
  "source": "patent US20050080252A1",
  "about": "“Process for preparing antiviral nucleoside derivatives” (Roche Palo Alto LLC, priority 2003, published 2005)",
  "origin": "cited, not measured here",
  "key": {"[1]": {"conditions": "unlike ribavirin"}},
  "data": [
    {"molecule": "NC(=O)c1ncn([C@H]2O[C@@H](CO)[C@H](O)[C@@H]2O)n1", "note": "[levovirin, 1-(3S,4R-dihydroxy-5S-hydroxymethyl-tetrahydro-furan-2S-yl)-1H-[1,2,4]triazole-3 carboxylic acid amide]", "values": [
      {"measurement": "direct antiviral activity", "setting": "[1]", "result": "does not have direct detectable antiviral activity"},
      {"measurement": "immune response / antiviral Th1 cytokine expression", "setting": "Th1 cytokine expression", "result": "stimulates immune responses by enhancing antiviral Th1 cytokine expression"}
    ]}
  ]
}
